From US6420377B1, “Covalent conjugates of topoisomerase I and topoisomerase II inhibitors” (priority 1997, dated 2002)
Read-outs that look alike come from different tables or passages of the source.

Columns and labels:
[1] = test system: KB-VIN20c; assay: Cell growth inhibition, vincristine-resistant KB-VIN20c cells; assay type: cell-based; conditions: for IC50: read-out: Cell Growth Inhibition IC50
Description: (§1) The KB oral carcinoma cell line was provided by M. Fisher (Pharmacology, UNC- Chapel Hill). The isolation and properties of the etoposide-resistant sub-clone, KB-7d, and the camptothecin-resistant line, KB-CPT100, were reported in P. Ferguson et al., Cancer Res. 48:5956 (1988) and D. Beidler et al., Cancer Res. 56:345 (1996), and are discussed briefly hereinafter. The vincristine-resistant sub-clone, KB-VIN20c was isolated by selection in 20 nM vincristine and over-expresses the P-glycoprotein multidrug-resistant drug-efflux protein (unpublished results).
(§2) All cell types were propagated in RPMI-1640 medium supplemented with 5% (v/v) fetal calf serum and 100 μg/mL kanamycin at 37° in a humidified atmosphere of 5% CO2 and 95% air. Over the course of the experiments, doubling times of cells were 24±4 hours.
(§3) Fifty thousand cells were plated in 25 cm^2 flasks (Falcon, N.J., USA) and incubated overnight. The medium was supplemented with test compounds at various concentrations and cultures were incubated for 48-51 hours (for about two cell doublings) before cells were trypsinized and then counted using a hemacytometer. The number of treated cells which excluded 0.5% (v/v) trypan blue were expressed as a percentage of the growth measured in control cultures. Compounds were evaluated in at least two independent experiments and the combined results were analyzed as scatter plots with dose-responses being computer fitted by linear regression at the 95% confidence level using Graphpad Software., San Diego, Calif. The IC50 concentrations which inhibited cell growth by fifty percent relative to control were interpolated from graphed results.

[2] = test system: KB; assay: Cytotoxicity measured as reduced plating efficiency, KB cells; assay type: cell-based; conditions: Homo sapiens, 3 h, read-out: Cytotoxicity Measured as Reduced Plating Efficiency IC50
Description: (§4) LC50 concentrations were determined by treating cells for three hours with different concentrations of compounds then replating cells to measure colony formation and plating efficiency as the percent of total cells forming colonies. Compounds were evaluated in three independent experiments. The plating efficiences of untreated cells varied between experiments with values ranging from 14-31% for KB, 31-56% for KB-7d, 16-38% for KB-VIN20c and 21-36% for KB-CPT100. A concentration of compound that reduced plating efficiency by fifty percent relative to control, the LC50, was determined graphically as stated in the preceding section.

[3] = test system: KB-CPT100; assay: Cell growth inhibition, camptothecin-resistant KB-CPT100 cells; assay type: cell-based; conditions: for cross-resistance of KB-CPT100 cells, growth inhibition: relative to KB
Description: as §1, §2, §3

[4] = test system: KB cells; assay: Gel lysis assay for genomic DNA breaks; assay type: cell-based; conditions: for reversal of genomic DNA fragmentation upon drug removal: additional hour in fresh media
Description: One million KB cells in 25cm^2 flasks were treated for three hours with test compound, the medium was discarded then cells were scraped into ice-cold PBS and harvested by centrifugation. Washed cell pellets were resuspended in eighty microliters of a 37° C. gel solution [1% (w/v) low-melting point agarose in PBS], and were cast in a mold and refrigerated to form 6×7×2 mm agarose plugs. Plugs of cells were incubated in lysis-digestion buffer (0.4M EDTA, 0.01 Tris (HCl, pH 8.0), 1% (w/v) N-lauryl-sarcosine and 100 μg/mL proteinase K) at 37° overnight or 50° for one hour. The treated plugs were equilibrated in TBE buffer and placed against a gel comb in a horizontal gel casting tray (BRL Inc., H4 system format). A 55° gel solution containing 0.8% (w/v) agarose in TBE was poured and allowed to gel. Electrophoresis was at 3.5 v/cm (measured between electrodes) for 16 hours at 4° without buffer re-circulation. The gel was stained with 1 μg/mL ethidium bromide in water, treated overnight at 25° C. with RN'ase (1 μg/mL), and then photographed under UV illumination. For the reversibility studies, treated cells were washed with PBS and incubated with fresh media for an additional hour before harvesting for plug preparation and gel analysis.

[5] = test system: KB-7d; assay: Cytotoxicity measured as reduced plating efficiency, KB-7d cells; assay type: cell-based; conditions: for IC50: KB7D, 3 h, read-out: Cytotoxicity Measured as Reduced Plating Efficiency IC50
Description: as §4

[6] = test system: KB-VIN20c; assay: Cytotoxicity measured as reduced plating efficiency, KB-VIN20c cells; assay type: cell-based; conditions: 3 h, read-out: Cytotoxicity Measured as Reduced Plating Efficiency IC50
Description: as §4

[7] = test system: KB-7d; assay: Cell growth inhibition, etoposide-resistant KB-7d cells; assay type: cell-based; conditions: for IC50: KB7D, read-out: Cell Growth Inhibition IC50
Description: as §1, §2, §3

[8] = test system: KB oral carcinoma cell line; assay: Cell growth inhibition, KB cells; assay type: cell-based; conditions: for IC50: Homo sapiens, KB
Description: as §1, §2, §3

[9] = target: T1, calf thymus DNA topoisomerase I (Bos taurus, UniProt F1MN93); assay: In vitro topoisomerase-DNA cleavage assay, topoisomerase I; assay type: biochemical; conditions: for stimulation of topoisomerase I cleavage activity, dose behaviour: higher test concentrations; for cleavable complex formation with topoisomerase I / topoisomerase I cleavable complex activity relative to unconjugated components: ten micromolar; for cleavable complex formation with topoisomerase I: FIG. 1A; for topoisomerase I cleavable complex activity relative to unconjugated components: S-1 vs 3, 4a, S-2 vs 3, 4b
T1 construct: Calf thymus DNA topoisomerases were purchased from TopoGen Inc., Columbus, Ohio; purchased TopoGen Inc., Columbus, Ohio; host or cells: calf thymus (tissue-derived enzyme)
T1 sequence (F1MN93 1-767): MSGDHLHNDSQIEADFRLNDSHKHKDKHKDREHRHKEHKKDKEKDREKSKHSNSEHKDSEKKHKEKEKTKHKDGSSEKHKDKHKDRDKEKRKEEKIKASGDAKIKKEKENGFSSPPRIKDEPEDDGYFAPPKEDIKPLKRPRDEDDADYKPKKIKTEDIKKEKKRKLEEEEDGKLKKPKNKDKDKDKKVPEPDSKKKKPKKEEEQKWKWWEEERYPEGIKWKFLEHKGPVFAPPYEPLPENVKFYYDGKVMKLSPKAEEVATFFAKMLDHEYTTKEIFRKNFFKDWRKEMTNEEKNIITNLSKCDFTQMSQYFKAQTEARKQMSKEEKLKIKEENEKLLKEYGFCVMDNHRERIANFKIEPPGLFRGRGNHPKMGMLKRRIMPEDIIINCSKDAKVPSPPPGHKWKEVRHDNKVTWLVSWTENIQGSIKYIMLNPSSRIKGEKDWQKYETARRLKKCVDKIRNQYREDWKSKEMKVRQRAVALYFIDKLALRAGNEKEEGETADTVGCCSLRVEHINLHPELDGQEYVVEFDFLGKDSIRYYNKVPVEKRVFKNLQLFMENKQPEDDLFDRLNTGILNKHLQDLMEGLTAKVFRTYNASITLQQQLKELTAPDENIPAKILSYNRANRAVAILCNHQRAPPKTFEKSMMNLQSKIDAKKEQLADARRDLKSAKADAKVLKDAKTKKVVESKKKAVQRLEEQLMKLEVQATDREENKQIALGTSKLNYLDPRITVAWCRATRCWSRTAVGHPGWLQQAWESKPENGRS
Text: (§5) Calf thymus DNA topoisomerases were purchased from TopoGen Inc., Columbus, Ohio. Tritium-labeled thymidine (60-90 ci/mmol) for labeling cellular DNA to measure protein-DNA complexes and αP^32-labeled deoxycytidine triphosphate (>3000 ci/mmol) were obtained from ICN Biochemicals Inc., Irvine, Calif. The latter radiochemical was used with a T4-DNA polymerase polymerase-labeling system from BRL Inc., Gaithersburg, Md., to prepare P^32-plasmid DNA for in vitro cleavage assays. Tissue culture reagents were purchased from Sigma Chemical Co., St. Louis, Mo., and Gibco-BRL Inc. All other chemicals were reagent grade.
(§6) The detailed method used to measure stimulation of cleavable complexes in vitro is described in K. Bastow et al., Planta Med. 59:195 (1993).. Briefly, incubated cleavage reactions containing one nanogram of P^32 end-labeled linearized PBR322 DNA, one unit of enzyme and test compound were divided equally for analysis. One portion was prepared for gel electrophoresis with subsequent autoradiography and protein-DNA complexes in the remaining sample were analyzed using the potassium-SDS precipitation method and scintillation spectrometry.

[10] = test system: KB-7d; conditions: relative to KB; cited from earlier work
[11] = test system: calf thymus DNA topoisomerase II; assay: In vitro topoisomerase-DNA cleavage assay, topoisomerase II; assay type: biochemical; conditions: for cleavable complex formation with topoisomerase II: FIG. 1A; for topoisomerase II cleavable complex activity relative to unconjugated components: S-1 vs 3, 4a, S-2 vs 3, 4b
Text: as §5, §6

[12] = test system: KB oral carcinoma cell line; conditions: KB growth inhibition; cited from earlier work
[13] = test system: KB cells; assay: Cellular protein-DNA complex formation (potassium-SDS precipitation); assay type: cell-based; conditions: one hour
Description: Stimulation of intracellular protein associated DNA breaks was measured using a standard assay method described in Y. Kashiwada et al., J. Pharm. Sci. 82:487 (1993). Briefly, KB cells were labeled overnight with tritiated thymidine (0.5 μCi/mL), chased for two hours and then treated in triplicate with test compounds at various concentrations. After one hour, samples were processed and protein-DNA complexes were measured as potassium-SDS precipitable radioactivity.

[14] = test system: KB-CPT100; conditions: relative to KB; cited from earlier work
[15] = test system: KB-CPT100; assay: Cytotoxicity measured as reduced plating efficiency, KB-CPT100 cells; assay type: cell-based; conditions: KBCPT100, 3 h, read-out: Cytotoxicity Measured as Reduced Plating Efficiency IC50
Description: as §4

[16] = fifty-times the IC50 for KB growth inhibition (etoposide eight, 4b four, 3 0.4, S-2 0.8 micromolar), three hours
[17] = twenty-fold higher concentration (3 at sixteen micromolar), three hours
[18] = twenty-fold higher concentration

Row | Compound | IC50 [2] [nM] | cross-resistance of KB-CPT100 cells, growth inhibition [3] | genomic DNA fragmentation [4, 16] | genomic DNA fragmentation [4, 17] | reversal of genomic DNA fragmentation upon drug removal [4, 18] | IC50 [5] [nM] | IC50 [6] [nM] | stimulation of topoisomerase I cleavage activity, dose behaviour [9] | stimulation of in vitro topoisomerase II cleavable-complexes, dose behaviour [11] | stimulation of topoisomerase II-induced DNA cleavage over enzyme control ([11]; fifty micromolar) | stimulation of topoisomerase II-induced DNA cleavage over enzyme control ([11]; one micromolar) | stimulation of topoisomerase II-induced DNA cleavage over enzyme control ([11]; ten micromolar) [fold] | IC50 [12] [nM] | cleavable complex formation with topoisomerase II ([11]; ten micromolar) | topoisomerase II cleavable complex activity relative to unconjugated components ([11]; ten micromolar) | cleavable complex formation with topoisomerase I [9] | topoisomerase I cleavable complex activity relative to unconjugated components [9] | further results
1 | CC[C@@]1(O)C(=O)OCc2c1cc1n(c2=O)Cc2c-1nc1ccccc1c2C=O [Compound 3, 7-formyl camptothecin, reference compound] | 10000 | about 58 fold | inactive | marginal fragmentation | not affected by reversing treatment | > 16000 | 12000 | not inhibited at higher test concentrations |  |  |  |  |  |  |  |  |  | IC50 ([1]; XB-VIN20c (so in the source), 48-51 hours, two numbers in brackets after the value): 18 nM; cross-resistance of KB-VIN20c cells, growth inhibition ([1]; relative to KB): no more than 2 fold; IC50 ([3]; KBCPT100, KB-CPT100, 48-51 hours, two numbers in brackets after the value, read-out: Cell Growth Inhibition IC50): 575 nM; IC50 ([7]; KB-7d, 48-51 hours, two numbers in brackets after the value): 9 nM; cross-resistance of KB-7d cells, growth inhibition ([7]; relative to KB): equally active; IC50 ([8]; read-out: estimated IC50, KB cell growth): 7 nM; IC50 ([8]; 48-51 hours, two numbers in brackets after the value, read-out: Cell Growth Inhibition IC50): 7 nM
2 | COc1cc([C@@H]2c3cc4c(cc3[C@@H](O[C@@H]3O[C@@H]5CO[C@@H](C)O[C@H]5[C@H](O)[C@H]3O)[C@H]3COC(=O)[C@H]23)OCO4)cc(OC)c1O [Compound C-1, etoposide, reference compound] |  |  | High molecular weight DNA fragments were detected |  |  |  |  |  | act saturably | 12 fold | 1.5 fold | 3 | 160 ± 40 |  |  |  |  | reversal of genomic DNA fragmentation upon drug removal ([4]; fifty-times the IC50): integrity of the DNA was restored; resistance of KB-7d cells [10]: 145 fold; intracellular protein-DNA complex formation ([13]; one micromolar and lower): no measurable response
3 | CC[C@@]1(O)C(=O)OCc2c1cc1n(c2=O)Cc2cc3ccccc3nc2-1 [Compound C-2, camptothecin] |  |  |  |  |  |  |  |  |  |  |  |  | 9.8 ± 3.2 |  |  |  |  | resistance of KB-CPT100 cells to growth-inhibitory effect [14]: 32 fold
4 | CC[C@@]1(O)C(=O)OCc2c1cc1n(c2=O)Cc2c-1nc1ccccc1c2/C=N\c1ccc(N[C@@H]2c3cc4c(cc3[C@@H](c3cc(OC)c(O)c(OC)c3)[C@H]3C(=O)OC[C@@H]32)OCO4)cc1 [Compound S-1] |  |  |  |  |  |  |  |  |  |  |  |  |  | induced cleavable complexes | reduced about two-fold | induced cleavable complexes | reduced about two-fold | melting point: > 300 °C (dec.)
5 | CC[C@@]1(O)C(=O)OCc2c1cc1n(c2=O)Cc2c-1nc1ccccc1c2/C=N/c1ccccc1N[C@@H]1c2cc3c(cc2[C@@H](c2cc(OC)c(O)c(OC)c2)[C@H]2C(=O)OC[C@@H]21)OCO3 [Compound S-2] | 4000 | only six-fold cross-resistant |  | high molecular mass genomic fragments were detected | only partially restored | > 15000 | 4600 | not inhibited at higher test concentrations | dose-inhibitory | only marginal stimulation | only marginal stimulation | ~4 |  | induced cleavable complexes | reduced about two-fold | induced cleavable complexes | reduced about two-fold | IC50 [1]: 27 nM; IC50 ([3]; KBCPT100, read-out: Cell Growth Inhibition IC50): 85 nM; genomic DNA fragmentation [4]: marginal DNA fragmentation; cross-resistance of KB-7d cells to cytotoxic action [5]: appeared cross-resistant; IC50 [15]: 2000 nM; IC50 [7]: 15 nM; activity at inhibiting KB cell growth relative to C-1 [8]: about ten-fold more active; IC50 ([8]; read-out: Cell Growth Inhibition IC50): 14 nM; intracellular protein-DNA complex formation, dose behaviour ([13]; high concentration (7.5-60 micromolar)): not dose-inhibitory at high concentration
